{"source": "paper PMC11574108", "about": "“4-Furanylvinylquinoline derivative as a new scaffold for the design of oxidative stress initiator and glucose transporter inhibitor drugs” (Scientific Reports, 2024)", "type_in_all_cases": "cell-based, human", "key": {"GLUT-1": {"tested_on": "GLUT-1", "assay": "qRT-PCR, GLUT-1 mRNA expression", "details": "HCT 116 p53-/-, 24 and 48 h", "description": "The cells were seeded in 35 mm Petri dishes at a density of 500,000 cells and incubated at 37 °C for 24 h. The total RNA was isolated after incubation with solutions of 13 (0.5 µM and 1.0 µM) for 24 h and 48 h, respectively. The isolation from the samples was carried out according to a TRIzol™ Reagent protocol (Thermo Fisher Scientific). Synthesis of cDNA was performed with 2 µg of total RNA using a GoScript™ Reverse Transcriptase kit (Promega) with Oligo(dT)23 Primers. Real-Time PCR was carried out using a CFX96 Touch™ Real-Time PCR Detection System (Bio-Rad) in 10 µL reaction volume. Each sample contained SsoAdvanced™ Universal SYBR Green Supermix (Bio Rad), a specific primer pair mix (0.5 µM each), and 1 µL of cDNA. […] The obtained data were analysed based on a comparison of the expression of the target genes and normalized to a reference gene (GAPDH) using the Livak-Schmittgen (2^−ΔΔCT) method. […]\nTo verify the effect of derivative 13 on glucose transporters at the mRNA level, the expression of the genes encoding the best-characterised glucose transporters in cells was quantified in real-time. In addition to GLUT-1, the effect of the tested derivative on changes in the expression of GLUT-3 and GLUT-4 was also evaluated (Fig. 8). […]"}, "PANC-1": {"tested_on": "PANC-1", "assay": "Monolayer antiproliferative MTS assay", "details": "2D monolayer; for IC50: MTS, 72-h incubation", "description": "(§1) The cells were seeded in 96-well plates (Nunc) with 5,000 or 4,000 cells per well for the cancer cells and NHDF, respectively, and incubated under standard conditions at 37 °C overnight. The culture media were then changed for freshly prepared solutions of the tested compounds in various concentrations. After 72-h incubation the antiproliferative assay was carried out as follows: the solutions of the compounds were changed in each well to 100 µL DMEM without phenol red and 20 µL of CellTiter 96 AQueous One Solution-MTS (Promega). The plates were incubated for 1 h at 37 °C, and the absorbance was then measured at 490 nm using a multi-plate reader (Synergy 4, BioTek). The experiment for each sample was repeated at least three times. The results are presented as the half-maximal inhibitory concentration (IC50) values, which were estimated in comparison to untreated cells (control) and calculated using GraphPad Prism v.8.0 (USA).\n(§2) However, the antiproliferative activity of derivative 13 with furan a ring was surprising. […] For this purpose, we selected two pancreatic cancer cell lines: AsPC-1, which is characterised by a deletion of the p53 protein[20] and PANC-1, which carries an R273H mutation. This mutation also occurred in the glioblastoma U-251 cell line[22],[23]. An additional non-adherent line that carries the TP53 mutation that results in the absence of p53 is the K562 leukemic cell line[24]. […] Moreover, 13 was selective toward […], as indicated by its SI values (3.35–9.41). Among all of the tested cell lines, the highest activity of the compound was found against the HCT 116 cells with the wild-type p53 protein (0.069 µM). […] The p53 protein also interacts with the metabolic pathways that are associated with glucose transport[25] as well as small molecules. In light of the above-mentioned facts, we also determined the cytotoxicity of the GLUT inhibitor BAY-876, which is based on a quinoline scaffold. […] Furthermore, BAY-876 was also toxic to normal cells."}, "AsPC-1": {"tested_on": "AsPC-1", "assay": "Monolayer antiproliferative MTS assay", "details": "2D monolayer; for IC50: MTS, 72-h incubation", "description": "as §1, §2"}}}
{"compound": "O=[N+]([O-])c1ccc(/C=C/c2ccnc3ccccc23)o1", "note": "[Compound 13]", "values": [{"measurement": "GLUT-1 mRNA level vs control", "setting": "GLUT-1", "value": "significant decrease"}, {"measurement": "IC50", "setting": "PANC-1", "value": "0.193 ± 0.008", "unit": "µM"}, {"measurement": "SI (selectivity index) PANC-1", "setting": "PANC-1; relative to NHDF", "value": 3.36}, {"measurement": "IC50", "setting": "PANC-1; Homo sapiens, PANC-1, 72 h", "value": "≤ 0.2", "unit": "µM"}, {"measurement": "IC50", "setting": "AsPC-1", "value": "0.123 ± 0.007", "unit": "µM"}, {"measurement": "SI (selectivity index) AsPC-1", "setting": "AsPC-1; relative to NHDF", "value": 5.28}, {"measurement": "IC50", "setting": "AsPC-1; Homo sapiens, ASPC1, 72 h", "value": "≤ 0.2", "unit": "µM"}]}
